Test [1] deals with T1, human cannabinoid CB1 receptor (Homo sapiens, UniProt P21554).
T1 construct: expressed in transfected cells; host or cells: Chinese hamster ovary (CHO) cells, stably transfected; membrane preparations
The test is described as follows: CB1 receptor affinity, [3H]CP-55,940 radioligand displacement on CHO cell membrane preparations. It is filed as binding. The procedure: CB1 receptor affinities can be determined using membrane preparations of Chinese hamster ovary (CHO) cells in which the human cannabinoid CB1 receptor is stably transfected (Biochem J. 1991, 279, 129-134) in conjunction with [3H]CP-55,940 as radioligand. After incubation of a freshly prepared cell membrane preparation with the [3H]-radioligand, with or without addition of test compound, separation of bound and free ligand is performed by filtration over glass fiber filters. Radioactivity on the filter is measured by liquid scintillation counting. The IC50 values can be determined from at least three independent measurements.
The CB1 IC50 values for tested compounds are as follows.
A general note: Loss of bound radioactivity is the signal in a displacement assay; it reports binding, not function.

For test [2] the following is noted: type 2 diabetes patients not on other anti-diabetic medications; six months of treatment; baseline value 7.9; placebo reduction 0.3%; cited from earlier work.

Like-named read-outs stand apart in the source and are kept apart here.

T1 sequence (P21554 whole entry): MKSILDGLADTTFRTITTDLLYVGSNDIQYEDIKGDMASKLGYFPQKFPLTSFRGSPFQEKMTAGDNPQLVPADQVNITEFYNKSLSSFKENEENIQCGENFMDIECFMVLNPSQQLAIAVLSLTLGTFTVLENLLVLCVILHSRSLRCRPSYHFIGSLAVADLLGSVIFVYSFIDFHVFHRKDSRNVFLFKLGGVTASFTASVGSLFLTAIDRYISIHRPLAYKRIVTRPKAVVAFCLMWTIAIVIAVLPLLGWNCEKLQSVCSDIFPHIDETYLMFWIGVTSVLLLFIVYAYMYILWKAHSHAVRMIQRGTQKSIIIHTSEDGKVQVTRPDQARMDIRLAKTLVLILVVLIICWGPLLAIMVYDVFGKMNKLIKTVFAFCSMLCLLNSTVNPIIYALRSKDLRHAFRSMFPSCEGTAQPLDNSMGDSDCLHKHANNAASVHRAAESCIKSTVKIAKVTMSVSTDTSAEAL

For orientation: IC50 means the concentration needed to halve the response being measured. Consider `COc1ccc(C2=NN(C(=NS(=O)(=O)c3ccc(Cl)cc3)NC(C)C(N)=O)CC2c2ccccc2)cc1` (stereo not shown) [compound 1], for which, in test [1] (read-out: CB1 IC50), the IC50 is below 100 nM.

With `COc1cccc(S(=O)(=O)N=C(NC2(C(N)=O)CCC2)N2CC(c3ccccc3)C(c3ccc(Cl)cc3)=N2)c1` (stereo not shown) [compound 10], the IC50 in test [1] (read-out: CB1 IC50) is below 100 nM.

Consider `CCOP(=O)(OCC)C(C)NC(=NS(=O)(=O)c1ccc(Cl)cc1)N1CC(c2ccccc2)C(c2ccc(Cl)cc2)=N1` (stereo not shown) [compound 28], for which, in test [1], the IC50 was in the range of 1000 to 10000 nM.

Consider `NS(=O)(=O)CCNC(=NS(=O)(=O)c1ccc(Cl)cc1)N1CC(c2ccccc2)C(c2ccc(Cl)cc2)=N1` (stereo not shown) [compound 3], for which the IC50 in test [1] (read-out: CB1 IC50) is below 100 nM.

`CC(C)C(NC(=NS(=O)(=O)c1cccc(C#N)c1)N1CC(c2ccccc2)C(c2ccc(Cl)cc2)=N1)C(N)=O` (stereo not shown) [compound 5]: the IC50 in test [1] (read-out: CB1 IC50) was below 100 nM.

Turning to `CC(C)C(NC(=NS(=O)(=O)c1cccc(C(=N)N)c1)N1CC(c2ccccc2)C(c2ccc(Cl)cc2)=N1)C(N)=O` (stereo not shown) [compound 9], the IC50 in test [1] (read-out: CB1 IC50) fell in the range of 100 to 1000 nM.

In the case of `Cc1c(C(=O)NN2CCCCC2)nn(-c2ccc(Cl)cc2Cl)c1-c1ccc(Cl)cc1` [rimonabant], the HbA1c levels lowered in test [2] was 0.8%.

With `COc1cccc(S(=O)(=O)N=C(NCCS(N)(=O)=O)N2CC(c3ccccc3)C(c3ccc(Cl)cc3)=N2)c1` (stereo not shown) [compound 14], the IC50 in test [1] (read-out: CB1 IC50) is below 100 nM.

`N#Cc1cccc(S(=O)(=O)N=C(NC(C(N)=O)C2CCC2)N2CC(c3ccccc3)C(c3ccc(Cl)cc3)=N2)c1` (stereo not shown) [compound 22]: in test [1] (read-out: CB1 IC50), the IC50 is below 100 nM.

For `COc1ccc(C2=NN(C(=NS(=O)(=O)c3ccc(Cl)cc3)NCCS(N)(=O)=O)CC2c2ccccc2)cc1` (stereo not shown) [compound 20], the IC50 in test [1] (read-out: CB1 IC50) is below 100 nM.

`NC(CCNC(=NS(=O)(=O)c1ccc(Cl)cc1)N1CC(c2ccccc2)C(c2ccc(Cl)cc2)=N1)=NO` (stereo not shown) [compound 8]: the IC50 in test [1] (read-out: CB1 IC50) was below 100 nM.

For `CC(O)C(NC(=NS(=O)(=O)c1cccc(C#N)c1)N1CC(c2ccccc2)C(c2ccc(Cl)cc2)=N1)C(N)=O` (stereo not shown) [compound 12], the IC50 in test [1] (read-out: CB1 IC50) is below 100 nM.

As for `NC(CNC(=NS(=O)(=O)c1ccc(Cl)cc1)N1CC(c2ccccc2)C(c2ccc(Cl)cc2)=N1)=NO` (stereo not shown) [compound 6], in test [1] (read-out: CB1 IC50), the IC50 is below 100 nM.

For `CC(NC(=NS(=O)(=O)c1cccc(C#N)c1)N1CC(c2ccccc2)C(c2ccc(Cl)cc2)=N1)C(N)=O` (stereo not shown) [compound 16], in test [1] (read-out: CB1 IC50), the IC50 was below 100 nM.

As to `NC(=O)C(CO)NC(=NS(=O)(=O)c1ccc(Cl)cc1)N1CC(c2ccccc2)C(c2ccc(Cl)cc2)=N1` (stereo not shown) [compound 2], in test [1] (read-out: CB1 IC50), the IC50 was below 100 nM.

With `N#Cc1cccc(S(=O)(=O)N=C(NC2(C(N)=O)CCC2)N2CC(c3ccccc3)C(c3ccc(Cl)cc3)=N2)c1` (stereo not shown) [compound 17], the IC50 in test [1] (read-out: CB1 IC50) is below 100 nM.

For the compound `COc1cccc(S(=O)(=O)N=C(NC(C(N)=O)C2CC2)N2CC(c3ccccc3)C(c3ccc(Cl)cc3)=N2)c1` (stereo not shown) [compound 21], in test [1] (read-out: CB1 IC50), the IC50 lay in the range of 100 to 1000 nM.

As to `CC(O)C(NC(=NS(=O)(=O)c1ccc(Cl)cc1)N1CC(c2ccccc2)C(c2ccc(Cl)cc2)=N1)C(=O)NC(CO)C(N)=O` (stereo not shown) [compound 11], the IC50 in test [1] (read-out: CB1 IC50) is below 100 nM.

Consider `CC(O)C(NC(=NS(=O)(=O)c1ccc(Cl)cc1)N1CC(c2ccccc2)C(c2ccc(Cl)cc2)=N1)C(N)=O` (stereo not shown) [compound 7], for which, in test [1] (read-out: CB1 IC50), the IC50 is below 100 nM.

With `NS(=O)(=O)CCNC(=O)C(CO)NC(=NS(=O)(=O)c1ccc(Cl)cc1)N1CC(c2ccccc2)C(c2ccc(Cl)cc2)=N1` (stereo not shown) [compound 26], the IC50 in test [1] (read-out: CB1 IC50) is below 100 nM.

As for `CC(C)C(NC(=NS(=O)(=O)c1cccc(C(N)=O)c1)N1CC(c2ccccc2)C(c2ccc(Cl)cc2)=N1)C(N)=O` (stereo not shown) [compound 4], in test [1] (read-out: CB1 IC50), the IC50 is 100 to 1000 nM.

In the case of `CC(O)C(NC(=NS(=O)(=O)c1cccc(C(=N)N)c1)N1CC(c2ccccc2)C(c2ccc(Cl)cc2)=N1)C(N)=O` (stereo not shown) [compound 13], in test [1] (read-out: CB1 IC50), the IC50 was below 100 nM.

With `CC(O)C(NC(=NS(=O)(=O)c1ccc(Cl)cc1)N1CC(c2ccccc2)C(c2ccc(Cl)cc2)=N1)C(=O)NCCS(N)(=O)=O` (stereo not shown) [compound 25], the IC50 in test [1] (read-out: CB1 IC50) is below 100 nM.

For `NS(=O)(=O)CCNC(=O)CNC(=NS(=O)(=O)c1ccc(Cl)cc1)N1CC(c2ccccc2)C(c2ccc(Cl)cc2)=N1` (stereo not shown) [compound 23], the IC50 in test [1] (read-out: CB1 IC50) was below 100 nM.

Consider `NC(=O)Cc1csc(NC(=NS(=O)(=O)c2ccc(Cl)cc2)N2CC(c3ccccc3)C(c3ccc(Cl)cc3)=N2)n1` (stereo not shown) [compound 27], for which the IC50 in test [1] (read-out: CB1 IC50) is 1000 to 10000 nM.

Consider `N#Cc1cccc(S(=O)(=O)N=C(NCCS(N)(=O)=O)N2CC(c3ccccc3)C(c3ccc(Cl)cc3)=N2)c1` (stereo not shown) [compound 15], for which, in test [1] (read-out: CB1 IC50), the IC50 was below 100 nM.

On to `COc1cccc(S(=O)(=O)N=C(NC(C)C(N)=O)N2CC(c3ccccc3)C(c3ccc(Cl)cc3)=N2)c1` (stereo not shown) [compound 18], for which, in test [1] (read-out: CB1 IC50), the IC50 is below 100 nM.

As for `COC(=O)C=CCNC(=NS(=O)(=O)c1ccc(Cl)cc1)N1CC(c2ccccc2)C(c2ccc(Cl)cc2)=N1` (stereo not shown) [compound 24], the IC50 in test [1] (read-out: CB1 IC50) is below 100 nM.

(Values after patent US8580768B2, “Cannabinoid receptor antagonists-inverse agonists useful for treating metabolic disorders, including obesity and diabetes” (Jenrin Discovery, Inc., priority 2010, dated 2013).)
